From ChEMBL document CHEMBL1152986, “The macrolide resistance genes erm(B) and mef(E) are carried by Tn2010 in dual-gene Streptococcus pneumoniae isolates belonging to clonal complex CC271” (2007)
≈ marks a conversion by molar mass, not a printed value.

Test system: Streptococcus pneumoniae
Assay: Antibacterial activity against tetracycline-susceptible Streptococcus pneumoniae GMRS06 harboring one-nucleotide insertion stop codon in […] gene
Assay type: functional

Structure (SMILES): CN(C)[C@@H]1C(O)=C(C(N)=O)C(=O)[C@@]2(O)C(O)=C3C(=O)c4c(O)cccc4[C@@](C)(O)[C@H]3C[C@@H]12 [TETRACYCLINE]
- MIC: 0.25 µg/mL (≈ 0.563 µM)
